Patent publication US20240190874A1, “SMALL MOLECULE DEGRADERS OF ANDROGEN RECEPTOR” (THE REGENTS OF THE UNIVERSITY OF MICHIGAN, priority 2021, published 2024)
Read-outs that look alike come from different tables or passages of the source.

Key:
Assay type in all cases: cell-based
[1] = tested on: VCaP cells; assay: Cellular potency (IC50) in VCaP cells
Protocol: (§1) Biological Assays. LNCaP and VCaP cells used were purchased from American Type Culture Collection (ATCC). LNCaP were grown in RPMI 1640 (Invitrogen) and VCaP cells were grown in DMEM with Glutamax (Invitrogen). All of the cells were supplemented with 10% fetal bovine serum (Invitrogen) at 37° C. in a humidified 5% CO2 incubator.

[2] = tested on: LNCaP cells; assay: Cellular potency (IC50) in LNCaP cells
Protocol: as §1

[3] = target: T1, AR (Homo sapiens, UniProt P10275); assay: Degradation of AR in VCaP cells; settings: VCaP cells; for Dmax: VCaP
T1 construct: Degradation of AR; Cellular potency; host or cells: VCaP cells
T1 sequence (P10275 1-920): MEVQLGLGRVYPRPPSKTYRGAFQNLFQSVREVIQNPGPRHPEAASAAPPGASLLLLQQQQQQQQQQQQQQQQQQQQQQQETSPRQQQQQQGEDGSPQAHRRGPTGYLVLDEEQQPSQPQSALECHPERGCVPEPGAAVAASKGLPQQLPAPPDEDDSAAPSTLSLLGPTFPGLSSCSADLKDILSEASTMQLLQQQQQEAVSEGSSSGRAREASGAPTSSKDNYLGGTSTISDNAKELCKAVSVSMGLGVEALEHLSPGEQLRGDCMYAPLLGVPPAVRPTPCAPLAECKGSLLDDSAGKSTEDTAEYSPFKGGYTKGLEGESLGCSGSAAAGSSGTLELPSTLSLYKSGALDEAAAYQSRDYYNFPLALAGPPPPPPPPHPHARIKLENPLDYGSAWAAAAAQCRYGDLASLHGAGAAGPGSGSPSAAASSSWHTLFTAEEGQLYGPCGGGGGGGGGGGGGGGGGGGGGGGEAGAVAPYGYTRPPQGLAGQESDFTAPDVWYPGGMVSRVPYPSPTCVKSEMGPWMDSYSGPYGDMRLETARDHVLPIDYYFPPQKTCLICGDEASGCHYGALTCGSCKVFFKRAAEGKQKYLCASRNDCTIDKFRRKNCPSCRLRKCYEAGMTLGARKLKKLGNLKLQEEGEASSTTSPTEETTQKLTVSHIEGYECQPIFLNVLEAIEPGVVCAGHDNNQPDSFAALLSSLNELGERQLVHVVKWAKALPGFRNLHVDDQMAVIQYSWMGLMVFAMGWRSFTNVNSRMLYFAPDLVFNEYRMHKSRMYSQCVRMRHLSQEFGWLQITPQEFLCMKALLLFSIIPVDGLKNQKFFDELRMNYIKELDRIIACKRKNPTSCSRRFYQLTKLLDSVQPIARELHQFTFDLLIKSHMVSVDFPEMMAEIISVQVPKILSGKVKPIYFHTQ
Protocol: as §1

Row | Structure (SMILES) | IC50 ([1]; Homo sapiens, VCaP) [nM] | IC50 ([2]; Homo sapiens, LNCaP) [nM] | Dmax [3] [%] | DC50 [3] [nM] | IC50 [1] [nM] | IC50 [2] [nM] | Degradation of AR in VCaP cells Dmax [3]
1 | C[C@H]1CC2(CCN(c3ccc(OC4CCN(C5CN(c6ccc7c(c6)C(=O)N(C6CCC(=O)NC6=O)C7=O)C5)CC4)cn3)CC2)CN1c1ccc(C#N)c(Cl)c1 (stereo partly drawn) [compound 61, 2-chloro-4-((3S)-8-(5-((1-(1-(2-(2,6-dioxopiperidin-3-yl)-1,3-dioxoisoindolin-5-yl)azetidin-3-yl)piperidin-4-yl)oxy)pyridin-2-yl)-3-methyl-2,8-diazaspiro-[4.5]decan-2-yl)benzonitrile] | < 10 | < 10 | > 90 |  |  |  | 
2 | C[C@H]1CC2(CCN(c3cnc(N4CCN(CC5CCN(c6ccc7c(c6)C(=O)N(C6CCC(=O)NC6=O)C7=O)CC5)CC4)cn3)CC2)CN1c1ccc(C#N)c(Cl)c1 (stereo partly shown) [compound 50] | < 100 | < 100 | > 90 | < 10 |  |  | 
3 | C[C@H]1CC2(CCN(c3ccc(C4CCN(CC5CN(c6ccc7c(c6)C(=O)N(C6CCC(=O)NC6=O)C7=O)C5)CC4)cn3)CC2)CN1c1ccc(C#N)c(Cl)c1 (stereo partly shown) [compound 43] | < 10 | < 10 | > 90 | < 1 |  |  | 
4 | C[C@H]1CC2(CCN(c3ccc(N4CCN(C5CN(c6ccc7c(c6)C(=O)N(C6CCC(=O)NC6=O)C7=O)C5)CC4)cc3)CC2)CN1c1ccc(C#N)c(Cl)c1 (stereo partly shown) [compound 27] | < 10 | < 10 | > 90 | < 1 |  |  | 
5 | C[C@H]1CC2(CCN(c3ccc(CN4CCC(C5CN(c6ccc7c(c6)C(=O)N(C6CCC(=O)NC6=O)C7=O)C5)CC4)c(F)c3)CC2)CN1c1ccc(C#N)c(Cl)c1 (stereo partly shown) [compound 9] |  |  | > 90 | < 1 | < 10 | < 10 | 
6 | C[C@H]1CC2(CCN(c3ccc(N4CCN(CC5CN(c6ccc7c(c6)C(=O)N(C6CCC(=O)NC6=O)C7=O)C5)CC4)cc3)CC2)CN1c1ccc(C#N)c(Cl)c1 (stereo partly drawn) [compound 28, 2-chloro-4-((3S)-8-(4-(4-((1-(2-(2,6-dioxopiperidin-3-yl)-1,3-dioxoisoindolin-5-yl)azetidin-3-yl)methyl)piperazin-1-yl)phenyl)-3-methyl-2,8-diazaspiro[4.5]decan-2-yl)benzonitrile] | < 10 | < 10 | > 90 |  |  |  | 
7 | C[C@H]1CC2(CCN(c3ccc(N4CCC(CN5CCN(c6ccc7c(c6)C(=O)N(C6CCC(=O)NC6=O)C7=O)CC5)CC4)nc3)CC2)CN1c1ccc(C#N)c(Cl)c1 (stereo partly shown) [compound 53] | < 100 | < 100 | > 90 | < 10 |  |  | 
8 | C[C@H]1CC2(CCN(c3ccc(N4CCC(N(C)C5CN(c6ccc7c(c6)C(=O)N(C6CCC(=O)NC6=O)C7=O)C5)CC4)cc3)CC2)CN1c1ccc(C#N)c(Cl)c1 (stereo partly drawn) [compound 119, 2-chloro-4-((3S)-8-(4-(4-((1-(2-(2,6-dioxopiperidin-3-yl)-1,3-dioxoisoindolin-5-yl)azetidin-3-yl)(methyl)amino)piperidin-1-yl)phenyl)-3-methyl-2,8-diazaspiro[4.5]decan-2-yl)benzonitrile] | < 10 | < 10 | > 90 |  |  |  | 
9 | C[C@H]1CC2(CCN(c3ccc(S(=O)(=O)C4CCN(C5CN(c6ccc7c(c6)C(=O)N(C6CCC(=O)NC6=O)C7=O)C5)CC4)cc3)CC2)CN1c1ccc(C#N)c(Cl)c1 (stereo partly shown) [compound 163] | < 10 | < 10 |  | < 1 |  |  | 
10 | C[C@H]1CC2(CCN(c3ccc(CN4CCN(C5CCN(c6ccc7c(c6)C(=O)N(C6CCC(=O)NC6=O)C7=O)CC5)CC4)nc3)CC2)CN1c1ccc(C#N)c(Cl)c1 (stereo partly shown) [compound 182] | < 100 | < 10 |  | < 1 |  |  | 
11 | C[C@H]1CC2(CCN(c3ccc(N4CCC(CN5Cc6cc7c(cc6C5)C(=O)N(C5CCC(=O)NC5=O)C7=O)CC4)nc3)CC2)CN1c1ccc(C#N)c(Cl)c1 (stereo partly shown) [compound 54] | < 100 | < 100 | > 90 | < 10 |  |  | 
12 | C[C@H]1CC2(CCN(c3ccc(OC4CN(C5CN(c6ccc7c(c6)C(=O)N(C6CCC(=O)NC6=O)C7=O)C5)C4)nn3)CC2)CN1c1ccc(C#N)c(Cl)c1 (stereo partly shown) [compound 73] | < 1000 | < 1000 | 50 to 70 | < 100 |  |  | 
13 | C[C@H]1CC2(CCN(c3ccc(CC4CCN(CC5CCN(c6ccc7c(c6)C(=O)N(C6CCC(=O)NC6=O)C7=O)CC5)CC4)cc3)CC2)CN1c1ccc(C#N)c(Cl)c1 (stereo partly shown) [compound 26] | < 10 | < 10 | > 90 | < 1 |  |  | 
14 | C[C@H]1CC2(CCN(c3ccc(CN4CCN(C5CN(c6cc7c(cc6F)C(=O)N(C6CCC(=O)NC6=O)C7=O)C5)CC4)nn3)CC2)CN1c1ccc(C#N)c(Cl)c1 (stereo partly shown) [compound 174] | < 10 | < 10 |  | < 1 |  |  | 
15 | C[C@H]1CC2(CCN(c3ccc(S(=O)(=O)C4CCN(CC5CCN(c6ccc7c(c6)C(=O)N(C6CCC(=O)NC6=O)C7=O)CC5)CC4)cc3)CC2)CN1c1ccc(C#N)c(Cl)c1 (stereo partly shown) [compound 162] | < 10 | < 10 |  | < 1 |  |  | 
16 | C[C@H]1CC2(CCN(c3ccc(OC4CCN(C5CN(c6ccc7c(c6)C(=O)N(C6CCC(=O)NC6=O)C7=O)C5)CC4)nc3)CC2)CN1c1ccc(C#N)c(Cl)c1 (stereo partly shown) [compound 63] | < 10 | < 10 | > 90 | < 1 |  |  | 
17 | C[C@H]1CC2(CCN(c3ccc(N4CCC(CN5Cc6cc7c(cc6C5)C(=O)N(C5CCC(=O)NC5=O)C7=O)CC4)nn3)CC2)CN1c1ccc(C#N)c(Cl)c1 (stereo partly shown) [compound 56] | < 100 | < 100 | > 90 | < 10 |  |  | 
18 | C[C@H]1CC2(CCN(c3ccc(OC4CCN(C5CN(c6cc7c(cc6F)C(=O)N(C6CCC(=O)NC6=O)C7=O)C5)CC4)nc3)CC2)CN1c1ccc(C#N)c(Cl)c1 (stereo partly shown) [compound 133] | < 10 | < 10 | > 90 | < 1 |  |  | 
19 | C[C@H]1CC2(CCN(c3ccc(OC4CCN(C5CN(c6ccc7c(c6)C(=O)N(C6CCC(=O)NC6=O)C7=O)C5)CC4)nn3)CC2)CN1c1ccc(C#N)c(Cl)c1 (stereo partly shown) [compound 62] | < 10 | < 10 | > 90 | < 1 |  |  | 
20 | C[C@H]1CC2(CCN(c3ccc(CN4CCN(C5CN(c6ccc7c(c6)C(=O)N(C6CCC(=O)NC6=O)C7=O)C5)CC4)nn3)CC2)CN1c1ccc(C#N)c(Cl)c1 (stereo partly shown) [compound 173] | < 100 | < 10 |  | < 1 |  |  | 
21 | C[C@H]1CC2(CCN(c3ccc(N4CCC(CN5Cc6cc7c(cc6C5)C(=O)N(C5CCC(=O)NC5=O)C7=O)CC4)cn3)CC2)CN1c1ccc(C#N)c(Cl)c1 (stereo partly shown) [compound 52] | < 100 | < 100 | > 90 | < 10 |  |  | 
22 | C[C@H]1CC2(CCN(c3ccc(C(=O)N4CCC(CN5CCOc6cc7c(cc6C5)C(=O)N(C5CCC(=O)NC5=O)C7=O)CC4)cc3)CC2)CN1c1ccc(C#N)c(Cl)c1 (stereo partly shown) [compound 195] | < 100 | < 10 |  | < 10 |  |  | 
23 | C[C@H]1CC2(CCN(c3ccc(CN4CCC(C5CN(c6ccc7c(c6)C(=O)N(C6CCC(=O)NC6=O)C7=O)C5)CC4)nc3)CC2)CN1c1ccc(C#N)c(Cl)c1 (stereo partly shown) [compound 177] | < 10 | < 10 |  | < 1 |  |  | 
24 | C[C@H]1CC2(CCN(c3ccc(C(=O)N4CCC(C(=O)CN5Cc6cc7c(cc6C5)C(=O)N(C5CCC(=O)NC5=O)C7=O)CC4)nc3)CC2)CN1c1ccc(C#N)c(Cl)c1 (stereo partly shown) [compound 160] | < 1000 | < 10 |  | < 1 |  |  | 
25 | C[C@H]1CC2(CCN(c3ccc(N4CCN(CC5CN(c6ccc7c(c6)C(=O)N(C6CCC(=O)NC6=O)C7=O)C5)CC4)nn3)CC2)CN1c1ccc(C#N)c(Cl)c1 (stereo partly shown) [compound 47] | < 10 | < 10 | > 90 | < 1 |  |  | 
26 | C[C@H]1CC2(CCN(c3ccc(OC4CN(C5CCN(c6ccc7c(c6)C(=O)N(C6CCC(=O)NC6=O)C7=O)CC5)C4)cc3)CC2)CN1c1ccc(C#N)c(Cl)c1 (stereo partly shown) [compound 60] | < 10 | < 10 | > 90 | < 1 |  |  | 
27 | C[C@H]1CC2(CCN(c3ccc(CN4CCN(C5CCN(c6ccc7c(c6)C(=O)N(C6CCC(=O)NC6=O)C7=O)CC5)CC4)c(F)c3)CC2)CN1c1ccc(C#N)c(Cl)c1 (stereo partly shown) [compound 42] |  |  |  | < 10 | < 100 | < 100 | A (A = >90%)
